Data from patent publication US20040126817A1, “Gap junction permeability assay” (priority 2001, published 2004).
Structures can show the parent of a compound that is named as a salt.

How the values were obtained:
[1] = tested on: GJIC in NRK (Normal Rat Kidney) cells, mainly Cx43; experiment: Gap junction coupling assay, NRK sender cells (D1-receptor) plus NRK receiver cells (CRE-luciferase), endogenous connexins; assay type: cell-based; settings: for Luciferase responses: NRK sender:receiver 1:1, 10 μM forskolin or 1 μM cAMP, 6 hours; for Luciferase responses / Luciferase response, 50 μM AGA / Luciferase response, 100 μM AGA / Luciferase response, 150 μM AGA / Luciferase response, Vehicle: control = 100%; for Luciferase response, 50 μM AGA / Luciferase response, 100 μM AGA / Luciferase response, 150 μM AGA / Luciferase response, Vehicle: NRK sender:receiver 1:1, agonist 10 μM, 6½ hours; for Luciferase response, 50 μM AGA: 50 μM AGA added 30 min before; for Luciferase response, 100 μM AGA: 100 μM AGA added 30 min before; for Luciferase response, 150 μM AGA: 150 μM AGA added 30 min before; for Luciferase response, Vehicle: no AGA (DMSO)
[2] = tested on: Cx32-mediated GJIC in HeLa cells; experiment: Gap junction coupling assay, HeLa sender and receiver cells with or without transfected Cx32; assay type: cell-based, human; settings: 10 μM, duplicates; for Luciferase response, Cells transfected with Cx32: 4.8 μg Cx32 DNA; for Luciferase response, Cells transfected with Cx32 / Luciferase response, Cells not transfected with Cx32: 1 ml sender + 0.2 ml receiver cells, percentage of control; for Luciferase response, Single dose Cx32: sender cells 2.4 μg Cx32 DNA; for Luciferase response, Single dose Cx32 / Luciferase response, Double dose Cx32: control = 100%; for Luciferase response, Double dose Cx32: sender cells 4.8 μg Cx32 DNA
NRK cells = experiment: CRE-luciferase response in NRK receiver cells only (check for endogenous D1-receptor); assay type: cell-based, rat; settings: for Luciferase responses: 10 μM, 6½ hours, control = 100%
Description: These experiments are performed to investigate whether the NRK cells express the D1-receptor endogenously. If NRK cells express D1 receptor endogenously, the receiver cells would be able to generate cAMP and produce a chemiluminescent signal independently of GJIC and the endogenous messenger generated by the sender cell. So only receiver cells are used for this experiment.
Cells are transfected with 5 μg CRE-luciferase DNA and 500 ng pRL-SV40 DNA per 6 cm dish. Each well of a 24-well plate received 250 μL cell suspension and 250 μL media, or approx. 25 000 cells. Cells are stimulated with 10 μM forskolin or apomorphine during 6½ hours before harvesting.

HeLa cells = experiment: CRE-luciferase response in HeLa receiver cells only; assay type: cell-based, human; settings: n=2, control = 100%
Description: This is conformed by an experiment in which apomorphine is added to wells containing only receiver cells. As predicted, there is no elicited response. Luciferase activity values are 100.0±6.5% (control, n=2) and 75.9±3.0% (apomorphine, n=2).

[3] = tested on: GJIC in CHO (Chinese Hamster Ovary) cells; experiment: Gap junction coupling assay, CHO sender and receiver cells with or without exogenous Cx32; assay type: cell-based; settings: 10 μM, 8 hours, control = 100%, duplicates; for Luciferase response, With exogenous Cx32: CHO transfected with Cx32 DNA; for Luciferase response, No exogenous Cx32: CHO
[4] = IV injection of glucagon in humans; cited from earlier work

Q: Which Luciferase responses [1] does the source give for `Nc1ncnc2c1ncn2[C@@H]1O[C@@H]2COP(=O)(O)O[C@H]2[C@H]1O` [cAMP, cyclic adenosine monophosphate] here?
A: 87.5±5.8%

Q: For `CN1CCc2cccc3c2[C@H]1Cc1ccc(O)c(O)c1-3` [Apomorphine, Apomorphine hydrochloride], which “Luciferase response, Cells transfected with Cx32” value [2] is on record?
A: 217.5 ± 3.0%

Q: What about the “Luciferase response, Cells not transfected with Cx32” value [2] of the same molecule?
A: 109.5 ± 1.1%

Q: What about the “Luciferase response, Single dose Cx32” value [2] of the same molecule?
A: 121.1 ± 7.2%

Q: And the “Luciferase response, Double dose Cx32” value [2]?
A: 176.5 ± 8.1%

Q: What about the Luciferase responses (NRK cells) of the same molecule?
A: 124.8%±6.8

Q: And the Luciferase activity values (HeLa cells)?
A: 75.9±3.0%

Q: And the “Luciferase response, With exogenous Cx32” value [3]?
A: 302.2 ± 2.2%

Q: What about the “Luciferase response, No exogenous Cx32” value [3] of the same molecule?
A: 222.6 ± 22.6%

Q: And the “increase over background of the chemiluminescent signal” value ([1]; NRK sender:receiver 1:1, 10 μM apomorphine)?
A: three-fold increase

Q: And the “Luciferase response, 50 μM AGA” value [1]?
A: 156.0 ± 8.9%

Q: What about the “Luciferase response, 100 μM AGA” value [1] of the same molecule?
A: 137.6 ± 9.3%

Q: What about the “Luciferase response, 150 μM AGA” value [1] of the same molecule?
A: 109.7 ± 8.0%

Q: And the “Luciferase response, Vehicle” value [1]?
A: 297.5%

Q: What about the “Receiver Cell Response” value ([1]; NRK sender:receiver 5:1, 6 hours, buffer = 100%, mean±SEM of 3) of the same molecule?
A: 324 ± 14.4%

Q: For glucagon, which “plasma levels of cAMP” value [4] is on record?
A: up to 200 nM

Q: With `CC1(C)[C@@H](O)CC[C@]2(C)[C@H]3C(=O)C=C4[C@H]5C[C@@](C)(C(=O)O)CC[C@]5(C)CC[C@@]4(C)[C@]3(C)CC[C@@H]12` [18-alpha-glycyrrhetinic acid] as the molecule, how does the “effect on the apomorphine-induced chemiluminescent signal (GJIC)” value ([1]; NRK, 50, 100, 150 μM AGA, 10 μM apomorphine) read?
A: able to decrease this effect in a concentration-dependent manner

Q: What about the “effect on the response to forskolin (independent of GJIC)” value ([1]; NRK, 50, 100, 150 μM AGA, 10 μM forskolin) of the same molecule?
A: unaffected

Q: With `C=C[C@@]1(C)CC(=O)[C@]2(O)[C@@]3(C)[C@@H](O)CCC(C)(C)[C@@H]3[C@H](O)[C@H](OC(C)=O)[C@@]2(C)O1` [Forskolin, forskolin] as the molecule, how does the “Luciferase response, Cells transfected with Cx32” value [2] read?
A: 254.6 ± 113.3%

Q: And the “Luciferase response, Cells not transfected with Cx32” value [2]?
A: 272.5 ± 40.9%

Q: What about the “Luciferase response, Single dose Cx32” value [2] of the same molecule?
A: 139.0 ± 14.3%

Q: And the “Luciferase response, Double dose Cx32” value [2]?
A: 195.1 ± 18.2%

Q: And the “increase in chemiluminescent signal” value (NRK cells; 10 μM forskolin)?
A: more than 8 fold

Q: What about the Luciferase responses (NRK cells) of the same molecule?
A: 876.6%±64.1

Q: And the “Luciferase response, With exogenous Cx32” value [3]?
A: 356.5 ± 21.8%

Q: And the “Luciferase response, No exogenous Cx32” value [3]?
A: 701.9 ± 0.0%

Q: What about the Luciferase responses [1] of the same molecule?
A: 669.3±56.8%

Q: And the “Luciferase response, 50 μM AGA” value [1]?
A: 732.6 ± 52.2%

Q: What about the “Luciferase response, 100 μM AGA” value [1] of the same molecule?
A: 669.9 ± 18.3%

Q: And the “Luciferase response, 150 μM AGA” value [1]?
A: 685.8 ± 32.0%

Q: And the “Luciferase response, Vehicle” value [1]?
A: 581.3%
